Experimental data reported in patent publication US20140315797A1, “Novel N-Terminally Modified Insulin Derivatives” (priority 2010, published 2014).
Starred links: 1 amine or outer side, 2 acyl side, 3 side chain; linkers in the order of their positions; H or OH if unused. Positions of bridges follow the written chain, without caps; N, C: chain ends. Groups on a side chain read outwards from the residue. Chains are numbered I, II in the order given. No end group written: not given here. *: point of attachment. Phe(Nα-CONH2) = NC(=O)N[C@@H](Cc1ccccc1)C(=O)*; C20 diacid = O=C(O)CCCCCCCCCCCCCCCCCCC(=O)*; C18 diacid = O=C(O)CCCCCCCCCCCCCCCCC(=O)*; C16 diacid = O=C(O)CCCCCCCCCCCCCCC(=O)*; NMe2Phe = CN(C)[C@@H](Cc1ccccc1)C(=O)*; γGlu = O=C(O)[C@H](CCC(=O)[*:2])N[*:1]; Hydantoyl = NC(=O)NCC(=O)*; AEEA = NCCOCCOCC(=O)O; Me2Gly = CN(C)CC(=O)*

Tests used:
[1] = molecular target: T1, human insulin receptor (IR-A) (Homo sapiens, UniProt P06213); assay: Insulin receptor affinity, SPA antibody capture assay, 0% HSA; assay type: binding; settings: relative to affinity of human insulin
T1 sequence (P06213 28-746 isoform P06213-2 limits assumed): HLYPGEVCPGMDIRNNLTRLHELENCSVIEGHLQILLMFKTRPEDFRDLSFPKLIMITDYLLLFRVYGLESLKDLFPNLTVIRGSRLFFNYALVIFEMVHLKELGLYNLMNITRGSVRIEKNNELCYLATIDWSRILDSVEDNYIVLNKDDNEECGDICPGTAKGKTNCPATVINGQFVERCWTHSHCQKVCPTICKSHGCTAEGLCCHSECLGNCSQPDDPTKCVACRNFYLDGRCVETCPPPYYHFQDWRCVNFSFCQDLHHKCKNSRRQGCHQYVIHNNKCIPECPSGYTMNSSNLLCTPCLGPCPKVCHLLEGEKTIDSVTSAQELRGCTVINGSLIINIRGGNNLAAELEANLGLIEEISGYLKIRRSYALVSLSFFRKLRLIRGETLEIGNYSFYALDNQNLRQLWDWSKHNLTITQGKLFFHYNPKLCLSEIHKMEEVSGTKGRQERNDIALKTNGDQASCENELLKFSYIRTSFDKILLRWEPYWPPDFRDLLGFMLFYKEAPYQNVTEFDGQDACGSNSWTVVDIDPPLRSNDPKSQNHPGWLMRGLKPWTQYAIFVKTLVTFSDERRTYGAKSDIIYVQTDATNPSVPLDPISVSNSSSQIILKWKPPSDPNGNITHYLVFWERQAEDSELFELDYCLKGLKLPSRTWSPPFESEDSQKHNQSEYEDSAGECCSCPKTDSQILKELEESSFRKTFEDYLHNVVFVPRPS
T1 sequence (P06213 763-1382 partner limits assumed): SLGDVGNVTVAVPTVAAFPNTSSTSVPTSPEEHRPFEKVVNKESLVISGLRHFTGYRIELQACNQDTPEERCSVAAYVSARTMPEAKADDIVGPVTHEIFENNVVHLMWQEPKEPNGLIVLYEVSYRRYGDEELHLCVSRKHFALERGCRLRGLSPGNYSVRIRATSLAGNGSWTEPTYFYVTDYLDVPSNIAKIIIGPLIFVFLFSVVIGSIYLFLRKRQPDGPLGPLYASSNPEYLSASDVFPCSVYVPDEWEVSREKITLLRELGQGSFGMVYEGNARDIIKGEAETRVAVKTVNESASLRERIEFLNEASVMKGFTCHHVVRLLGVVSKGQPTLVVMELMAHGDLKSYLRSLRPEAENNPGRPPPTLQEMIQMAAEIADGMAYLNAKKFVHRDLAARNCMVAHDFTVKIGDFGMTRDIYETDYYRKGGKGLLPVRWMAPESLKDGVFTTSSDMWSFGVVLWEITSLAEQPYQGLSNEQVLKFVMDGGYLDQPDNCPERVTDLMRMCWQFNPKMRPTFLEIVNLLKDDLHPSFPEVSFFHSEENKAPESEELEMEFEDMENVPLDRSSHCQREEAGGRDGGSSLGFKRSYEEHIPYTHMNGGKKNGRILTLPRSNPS
Description: (§1) The affinity of the acylated insulin analogues of this invention for the human insulin receptor is determined by a SPA assay (Scintillation Proximity Assay) microtiterplate antibody capture assay. SPA-PVT antibody-binding beads, anti-mouse reagent (Amersham Biosciences, Cat No. PRNQ0017) are mixed with 25 ml of binding buffer (100 mM HEPES pH 7.8; 100 mM sodium chloride, 10 mM MgSO4, 0.025% Tween-20). Reagent mix for a single Packard Optiplate (Packard No. 6005190) is composed of 2.4 μl of a 1:5000 diluted purified recombinant human insulin receptor (either with or without exon 11), an amount of a stock solution of A14Tyr[^125I]-human insulin corresponding to 5000 cpm per 100 μl of reagent mix, 12 μl of a 1:1000 dilution of F12 antibody, 3 ml of SPA-beads and binding buffer to a total of 12 ml. A total of 100 μl reagent mix is then added to each well in the Packard Optiplate and a dilution series of the insulin derivative is made in the Optiplate from appropriate samples. The samples are then incubated for 16 hours while gently shaken. The phases are the then separated by centrifugation for 1 min and the plates counted in a Topcounter. The binding data were fitted using the nonlinear regression algorithm in the GraphPad Prism 2.01 (GraphPad Software, San Diego, Calif.) and affinities are expressed relative (in percentage (%)) to the affinity of human insulin.

duodenum lumen enzymes = settings: pH 7.4
Description: Degradation of insulin analogs using duodenum lumen enzymes (prepared by filtration of duodenum lumen content) from SPD rats. The assay is performed by a robot in a 96 well plate (2 ml) with 16 wells available for insulin analogs and standards. Insulin analogs ˜15 μM are incubated with duodenum enzymes in 100 mM Hepes, pH=7.4 at 37° C., samples are taken after 1, 15, 30, 60, 120 and 240 min and reaction quenched by addition of TFA. Intact insulin analogs at each point are determined by RP-HPLC. Degradation half time is determined by exponential fitting of the data and normalized to half time determined for the reference insulins, A14E, B25H, desB30 human insulin or human insulin in each assay. The amount of enzymes added for the degradation is such that the half time for degradation of the reference insulin is between 60 min and 180 min.

[2] = molecular target: T1, human insulin receptor (IR-A); settings: relative to affinity of human insulin; […] HSA in binding buffer
Description: as §1
A related assay is also used wherein the binding buffer also contains 1.5% HSA in order to mimic physiological conditions

Substance	Relative IR-A affinity (@ 0% HSA) (%) [1] [%]	Duodenum degradation. Relative stability vs. A14E, B25H, desB30 human insulin (duodenum lumen enzymes)	Relative IR-A affinity (@ […] HSA) (%)e [2] [%]
I: NMe2Phe-VNQHLCGSHLVEALHLVCGERGFHYTPK([AEEA-AEEA-γGlu-C20 diacid]) / II: Me2Gly-IVEQCCTSICSLEQLENYCN (disulfide I:6-II:6, I:18-II:19, II:5-II:10) [Example 7, A1(N^α,N^α-Dimethyl), A14E, B1(NP,N^α-dimethyl), B16H, B25H, B29K(N^εeicosanedioyl-gGlu-2xOEG), desB30 human insulin]	0.5	0.4	0.03
I: NMe2Phe-VNQHLCGSHLVEALYLVCGERGFHYPK([γGlu-C16 diacid]) / II: Me2Gly-IVEQCCTSICSLEQLENYCN (disulfide I:6-II:6, I:18-II:19, II:5-II:10) [Example 8, A1G(N^α,N^α-Dimethyl), A14E, B1F(N^α,N^α-dimethyl), B25H, desB27, B29K(N^εhexadecanedioyl-gGlu), desB30 human insulin]	2.7	6.8	0.18
I: NMe2Phe-VNQHLCGSHLVEALYLVCGERGFHYPK([γGlu-C18 diacid]) / II: Me2Gly-IVEQCCTSICSLEQLENYCN (disulfide I:6-II:6, I:18-II:19, II:5-II:10) [Example 4, A1(N^α, N^α-Dimethyl), A14E, B1(N^α, N^α-dimethyl), B25H, desB27, B29K(N^εoctadecanedioyl-gGlu), desB30 human insulin]	1.7	8.6	0.03
I: {Phe(Nα-CONH2)}-VNQHLCGSHLVEALHLVCGERGFFYPK([AEEA-AEEA-γGlu-C20 diacid]) / II: Hydantoyl-IVEQCCTSICSLEQLENYCN (disulfide I:6-II:6, I:18-II:19, II:5-II:10) [Example 30, A1G(N^αcarbamoyl), A14E, B1F(N^αcarbamoyl), B16H, desB27, B29K(N^εeicosanedioyl-gGlu-2xOEG), desB30 human insulin]		4.9	
I: {Phe(Nα-CONH2)}-VNQHLCGSHLVEALYLVCGERGFFYPK([AEEA-AEEA-γGlu-C16 diacid]) / II: Hydantoyl-IVEQCCTSICSLEQLENYCN (disulfide I:6-II:6, I:18-II:19, II:5-II:10) [Example 20]	4.7	1.8	0.48
I: {Phe(Nα-CONH2)}-VNQHLCGSHLVEALYLVCGERGFFYPK([AEEA-AEEA-γGlu-C20 diacid]) / II: Hydantoyl-IVEQCCTSICSLEQLENYCN (disulfide I:6-II:6, I:18-II:19, II:5-II:10) [Example 29, A1G(N^αcarbamoyl), A14E, B1F(N^αcarbamoyl), desB27, B29K(N^εeicosanedioyl-gGlu-2xOEG), desB30 human insulin]	2.6	3.0	0.20
I: {Phe(Nα-CONH2)}-VNQHLCGSHLVEALYLVCGERGFFYPK([γGlu-C16 diacid]) / II: Hydantoyl-IVEQCCTSICSLEQLENYCN (disulfide I:6-II:6, I:18-II:19, II:5-II:10) [Example 19, A1G(N(alpha)carbamoyl), A14E, B1F(N(alpha)carbamoyl), desB27, B29K(N(eps)hexadecanedioyl-gGlu), desB30 human insulin]	5.0	3.0	0.14
